In ChEMBL document CHEMBL1135988, “Synthesis and biological evaluation of new citrate-based siderophores as potential probes for the mechanism of iron uptake in mycobacteria” (2002):

test system: Mycobacterium avium subsp. paratuberculosis; assay: Ability to act as growth factor for Mycobacterium paratuberculosis at 2.4 uM concentration, expressed as growth index; type: functional, mycobacteria paratuberculosis

SMILES	GI
CCCCC/C=C/C(=O)N(O)CCCNC(=O)CC1(O)CC(=O)N(CCCN(O)C(=O)/C=C/CCCCC)C1=O (centres undefined)	4.6
COC(=O)[C@H](CCCCN(O)C(=O)/C=C/c1ccccc1)NC(=O)CC(O)(CC(=O)N[C@@H](CCCCN(O)C(=O)/C=C/c1ccccc1)C(=O)OC)C(=O)O	2.5
CC(C)(C)OC(=O)C(O)(CC(=O)NCCCN(O)C(=O)/C=C/c1ccccc1)CC(=O)NCCCN(O)C(=O)/C=C/c1ccccc1	4.6
CCCCC/C=C/C(=O)N(O)CCCNC(=O)CC(O)(CC(=O)NCCCN(O)C(=O)/C=C/CCCCC)C(=O)OC(C)(C)C	0.69
O=C(CC(O)(CC(=O)NCCCCN(O)C(=O)/C=C/c1ccccc1)C(=O)O)NCCCCN(O)C(=O)/C=C/c1ccccc1	1.5
CCCCCCCCCCCCC/C=C/C(=O)N(O)CCCC[C@H](NC(=O)[C@@H]1COC(c2ccccc2O)=N1)C(=O)OC(C(C)C)C(C)C(=O)N[C@H]1CCCCN(O)C1=O (some centres undefined)	1
O=C(CC(O)(CC(=O)NCCCN(O)C(=O)/C=C/c1ccccc1)C(=O)O)NCCCN(O)C(=O)/C=C/c1ccccc1	0.76
CCCCC/C=C/C(=O)N(O)CCCNC(=O)CC(O)(CC(=O)NCCCN(O)C(=O)/C=C/CCCCC)C(=O)O	1
CC(=O)N(O)CCCCCNC(=O)CCC(=O)N(O)CCCCCNC(=O)CCC(=O)N(O)CCCCCN [DEFEROXAMINE]	0.92
